In PubChem BioAssay AID1918934 (Molecular Pharmacology Branch, DTP, NCI, 2023):
Values joined by “and” are separate entries in the source; they are usually repeats but may differ in a detail not shown here. Equal entries are not always repeated. Values belong to the molecule of their own block, whether it stands above or below them.

Tested on: 292921-168-R-J2-PDC complex spheroid viability
Test: Anticancer human tumor 292921-168-R-J2-PDC patient-derived pancreatic carcinoma cell line growth inhibition
Conditions: for viability, T/C: stronger effect = lower value
Outline: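 Multicellular complex spheroids of tumor cells with human endothelial cells (HUVEC) and mesenchymal stem cells; the LSD1 inhibitor iadademstat was combined with standard-of-care or investigational agents. Top concentration at or near clinical Cmax, half-log dilutions; final DMSO ≤0.25%.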

[1] = curve of first compound, second compound 0.1 µM
[2] = curve of first compound, second compound 0.316 µM
[3] = curve of first compound, second compound 1 µM
[4] = curve of first compound, second compound 3.16 µM
[5] = curve of first compound, second compound 10 µM
[6] = second compound 0.1 µM, first compound 0.0316 µM
[7] = second compound 0.1 µM, first compound 0.1 µM
[8] = second compound 0.1 µM, first compound 0.316 µM
[9] = second compound 0.1 µM, first compound 1 µM
[10] = second compound 0.316 µM, first compound 0.0316 µM
[11] = second compound 0.316 µM, first compound 0.1 µM
[12] = second compound 0.316 µM, first compound 0.316 µM
[13] = second compound 0.316 µM, first compound 1 µM
[14] = second compound 1 µM, first compound 0.0316 µM
[15] = second compound 1 µM, first compound 0.1 µM
[16] = second compound 1 µM, first compound 0.316 µM
[17] = second compound 1 µM, first compound 1 µM
[18] = second compound 3.16 µM, first compound 0.0316 µM
[19] = second compound 3.16 µM, first compound 0.1 µM
[20] = second compound 3.16 µM, first compound 0.316 µM
[21] = second compound 3.16 µM, first compound 1 µM
[22] = second compound 10 µM, first compound 0.0316 µM
[23] = second compound 10 µM, first compound 0.1 µM
[24] = second compound 10 µM, first compound 0.316 µM
[25] = second compound 10 µM, first compound 1 µM
[26] = second compound 0.1 µM, first compound 0.00949 µM
[27] = second compound 0.1 µM, first compound 0.03 µM
[28] = second compound 0.1 µM, first compound 0.0949 µM
[29] = second compound 0.1 µM, first compound 0.3 µM
[30] = second compound 0.316 µM, first compound 0.00949 µM
[31] = second compound 0.316 µM, first compound 0.03 µM
[32] = second compound 0.316 µM, first compound 0.0949 µM
[33] = second compound 0.316 µM, first compound 0.3 µM
[34] = second compound 1 µM, first compound 0.00949 µM
[35] = second compound 1 µM, first compound 0.03 µM
[36] = second compound 1 µM, first compound 0.0949 µM
[37] = second compound 1 µM, first compound 0.3 µM
[38] = second compound 3.16 µM, first compound 0.00949 µM
[39] = second compound 3.16 µM, first compound 0.03 µM
[40] = second compound 3.16 µM, first compound 0.0949 µM
[41] = second compound 3.16 µM, first compound 0.3 µM
[42] = second compound 10 µM, first compound 0.00949 µM
[43] = second compound 10 µM, first compound 0.03 µM
[44] = second compound 10 µM, first compound 0.0949 µM
[45] = second compound 10 µM, first compound 0.3 µM
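Further: seven day compound exposure before luminescent viability read.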
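Wherever viability, T/C is given: 100% = DMSO vehicle control wells.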

IC50 (curve of compound): > 10000 nM
SMILES: CC(C)c1c(-c2ccccc2)nc2c(C#N)c[nH]n2c1=O
viability, T/C (compound 0.0316 µM): 100% and 101%
viability, T/C (compound 0.1 µM): 97.6% and 101%
viability, T/C (compound 0.316 µM): 102% and 93.6%
viability, T/C (compound 1 µM): 106% and 98.2%
viability, T/C (compound 3.16 µM): 102% and 105%
viability, T/C (compound 10 µM): 65.2% and 70.4%

IC50 (curve of compound): < 3.16 nM
SMILES: CC1COCCN1c1cc(-c2ccnn2C)c2ccnc(-c3ccn[nH]3)c2n1 (stereo not drawn)
viability, T/C (compound 0.00316 µM): 15.4% and 15.1%
viability, T/C (compound 0.01 µM): 12.8% and 16.4%
viability, T/C (compound 0.0316 µM): 12.4% and 13%
viability, T/C (compound 0.1 µM): 16.3% and 14.8%
viability, T/C (compound 0.316 µM): 17.2% and 17.7%
viability, T/C (compound 1 µM): 17.8% and 18.7%

IC50 (curve of compound): 2030 nM and 1980 nM
SMILES: CC1(C)CCC(CN2CCN(c3ccc(C(=O)NS(=O)(=O)c4ccc(NCC5CCOCC5)c([N+](=O)[O-])c4)c(Oc4cnc5[nH]ccc5c4)c3)CC2)=C(c2ccc(Cl)cc2)C1
viability, T/C (compound 0.0316 µM): 105% and 108%
viability, T/C (compound 0.1 µM): 114%
viability, T/C (compound 0.316 µM): 110% and 108%
viability, T/C (compound 1 µM): 98.1% and 94.9%
viability, T/C (compound 3.16 µM): 20% and 19.2%
viability, T/C (compound 10 µM): 0.32% and 0.33%

The remaining lines, values behind:

SMILES: CC(C)CC(NC(=O)CNC(=O)c1cc(Cl)ccc1Cl)B1OC(=O)CC(CC(=O)O)(C(=O)O)O1 (stereo not drawn)
viability, T/C (compound 0.000316 µM): 99.1% and 96.2%
viability, T/C (compound 0.001 µM): 113% and 105%
viability, T/C (compound 0.00316 µM): 87.8% and 85.7%
viability, T/C (compound 0.01 µM): 17% and 20.2%
viability, T/C (compound 0.0316 µM): 6.27% and 3.15%
viability, T/C (compound 0.1 µM): 0.79% and 0.83%
IC50 (curve of compound): 5.86 nM and 5.94 nM

SMILES: COc1cc(Nc2ncc3c(n2)-c2ccc(Cl)cc2C(c2c(F)cccc2OC)=NC3)ccc1C(=O)O + NC1CC1c1ccc(-c2cccc(O)c2)cc1
IC50 [1]: < 3.16 nM
IC50 [2]: < 3.16 nM
IC50 [3]: < 3.16 nM
IC50 [4]: < 3.16 nM
IC50 [5]: < 3.16 nM
viability, T/C (second compound 0.1 µM, first compound 0.00316 µM): 36.8%
viability, T/C (second compound 0.1 µM, first compound 0.01 µM): 40.9%
viability, T/C [6]: 37.5%
viability, T/C [7]: 31.9%
viability, T/C [8]: 24.1%
viability, T/C [9]: 16.4%
viability, T/C (second compound 0.316 µM, first compound 0.00316 µM): 39.2%
viability, T/C (second compound 0.316 µM, first compound 0.01 µM): 44.5%
viability, T/C [10]: 37.5%
viability, T/C [11]: 31.4%
viability, T/C [12]: 24.8%
viability, T/C [13]: 16.5%
viability, T/C (second compound 1 µM, first compound 0.00316 µM): 37.2%
viability, T/C (second compound 1 µM, first compound 0.01 µM): 35.9%
viability, T/C [14]: 34.6%
viability, T/C [15]: 26%
viability, T/C [16]: 20.2%
viability, T/C [17]: 15.9%
viability, T/C (second compound 3.16 µM, first compound 0.00316 µM): 30.4%
viability, T/C (second compound 3.16 µM, first compound 0.01 µM): 36.5%
viability, T/C [18]: 35.2%
viability, T/C [19]: 28.1%
viability, T/C [20]: 23.7%
viability, T/C [21]: 15%
viability, T/C (second compound 10 µM, first compound 0.00316 µM): 34.2%
viability, T/C (second compound 10 µM, first compound 0.01 µM): 32.7%
viability, T/C [22]: 34.2%
viability, T/C [23]: 28%
viability, T/C [24]: 19.4%
viability, T/C [25]: 14.9%

SMILES: COc1ccc([C@@H](O)c2cc(-c3ncnc4cc(N5CCOCC5)ccc34)c(F)cc2Cl)nn1 + NC1CC1c1ccc(-c2cccc(O)c2)cc1
IC50 [1]: 403 nM
IC50 [2]: 270 nM
IC50 [3]: 158 nM
IC50 [4]: 131 nM
IC50 [5]: < 31.6 nM
viability, T/C [6]: 73.1%
viability, T/C [7]: 73.9%
viability, T/C [8]: 53.5%
viability, T/C [9]: 30.8%
viability, T/C (second compound 0.1 µM, first compound 3.16 µM): 20.9%
viability, T/C (second compound 0.1 µM, first compound 10 µM): 10.5%
viability, T/C [10]: 72.5%
viability, T/C [11]: 69.6%
viability, T/C [12]: 44.4%
viability, T/C [13]: 28.2%
viability, T/C (second compound 0.316 µM, first compound 3.16 µM): 18.2%
viability, T/C (second compound 0.316 µM, first compound 10 µM): 10.7%
viability, T/C [14]: 57.7%
viability, T/C [15]: 56.9%
viability, T/C [16]: 41.9%
viability, T/C [17]: 28.1%
viability, T/C (second compound 1 µM, first compound 3.16 µM): 18%
viability, T/C (second compound 1 µM, first compound 10 µM): 11.3%
viability, T/C [18]: 54.9%
viability, T/C [19]: 55.8%
viability, T/C [20]: 38.8%
viability, T/C [21]: 23.4%
viability, T/C (second compound 3.16 µM, first compound 3.16 µM): 16.8%
viability, T/C (second compound 3.16 µM, first compound 10 µM): 11.5%
viability, T/C [22]: 44.6%
viability, T/C [23]: 43.3%
viability, T/C [24]: 30%
viability, T/C [25]: 20.8%
viability, T/C (second compound 10 µM, first compound 3.16 µM): 15.5%
viability, T/C (second compound 10 µM, first compound 10 µM): 12.2%

SMILES: NS(=O)(=O)OCC1CC(n2ccc3c(NC4CCc5ccccc54)ncnc32)CC1O (stereo not drawn) + NC1CCC(NC2CC2c2ccccc2)CC1
IC50 [1]: 16.8 nM
IC50 [2]: 16.7 nM
IC50 [3]: 16.1 nM
IC50 [4]: 15.3 nM
IC50 [5]: 12.8 nM
viability, T/C [26]: 83.8%
viability, T/C [27]: 15.6%
viability, T/C [28]: 3.97%
viability, T/C [29]: 1.88%
viability, T/C (second compound 0.1 µM, first compound 0.949 µM): 1.9%
viability, T/C (second compound 0.1 µM, first compound 3 µM): 2.04%
viability, T/C [30]: 83.4%
viability, T/C [31]: 15.3%
viability, T/C [32]: 4.75%
viability, T/C [33]: 3.14%
viability, T/C (second compound 0.316 µM, first compound 0.949 µM): 2.25%
viability, T/C (second compound 0.316 µM, first compound 3 µM): 1.88%
viability, T/C [34]: 77.6%
viability, T/C [35]: 17.4%
viability, T/C [36]: 4.76%
viability, T/C [37]: 2.36%
viability, T/C (second compound 1 µM, first compound 0.949 µM): 2.12%
viability, T/C (second compound 1 µM, first compound 3 µM): 1.71%
viability, T/C [38]: 72.7%
viability, T/C [39]: 18.4%
viability, T/C [40]: 4.6%
viability, T/C [41]: 2.14%
viability, T/C (second compound 3.16 µM, first compound 0.949 µM): 1.54%
viability, T/C (second compound 3.16 µM, first compound 3 µM): 1.63%
viability, T/C [42]: 62.3%
viability, T/C [43]: 15.6%
viability, T/C [44]: 4.83%
viability, T/C [45]: 2.29%
viability, T/C (second compound 10 µM, first compound 0.949 µM): 1.42%
viability, T/C (second compound 10 µM, first compound 3 µM): 0.82%

SMILES: Nc1ncn(C2CC(O)C(CO)S2)c(=O)n1 (stereo not drawn) + NC1CC1c1ccc(-c2cccc(O)c2)cc1
IC50 [1]: 61.3 nM
IC50 [2]: 53.1 nM
IC50 [3]: 50.3 nM
IC50 [4]: 40 nM
IC50 [5]: 36.5 nM
viability, T/C (second compound 0.1 µM, first compound 0.000949 µM): 83%
viability, T/C (second compound 0.1 µM, first compound 0.003 µM): 80.8%
viability, T/C [26]: 73.2%
viability, T/C [27]: 62.2%
viability, T/C [28]: 42.7%
viability, T/C [29]: 11.5%
viability, T/C (second compound 0.316 µM, first compound 0.000949 µM): 66.8%
viability, T/C (second compound 0.316 µM, first compound 0.003 µM): 73.2%
viability, T/C [30]: 63.9%
viability, T/C [31]: 63.1%
viability, T/C [32]: 37.3%
viability, T/C [33]: 13.3%
viability, T/C (second compound 1 µM, first compound 0.000949 µM): 63.9%
viability, T/C (second compound 1 µM, first compound 0.003 µM): 67%
viability, T/C [34]: 74.4%
viability, T/C [35]: 56.9%
viability, T/C [36]: 38.5%
viability, T/C [37]: 12.8%
viability, T/C (second compound 3.16 µM, first compound 0.000949 µM): 67.5%
viability, T/C (second compound 3.16 µM, first compound 0.003 µM): 66.8%
viability, T/C [38]: 62.6%
viability, T/C [39]: 55.1%
viability, T/C [40]: 36%
viability, T/C [41]: 12.8%
viability, T/C (second compound 10 µM, first compound 0.000949 µM): 55.2%
viability, T/C (second compound 10 µM, first compound 0.003 µM): 62%
viability, T/C [42]: 59.9%
viability, T/C [43]: 52.8%
viability, T/C [44]: 33.6%
viability, T/C [45]: 15.5%
